Experimental data published in patent US11739070B2, “C5A receptor modulators” (IDORSIA PHARMACEUTICALS LTD, priority 2018, dated 2023).

Target: T1, C5AR1 (Homo sapiens, UniProt P21730)
T1 construct: host or cells: CHO-K1
T1 sequence (P21730 1-350): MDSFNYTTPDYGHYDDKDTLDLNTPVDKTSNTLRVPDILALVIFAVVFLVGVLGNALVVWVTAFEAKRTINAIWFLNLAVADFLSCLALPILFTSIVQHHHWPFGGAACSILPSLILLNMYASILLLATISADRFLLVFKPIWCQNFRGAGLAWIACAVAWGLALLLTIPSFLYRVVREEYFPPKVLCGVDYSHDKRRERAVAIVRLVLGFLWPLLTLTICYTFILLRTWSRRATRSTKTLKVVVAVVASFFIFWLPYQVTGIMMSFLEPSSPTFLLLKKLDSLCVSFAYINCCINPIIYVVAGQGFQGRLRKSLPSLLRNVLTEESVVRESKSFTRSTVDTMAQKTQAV
Assay: hC5a DISCO IC50 assay (PathHunter beta-arrestin, antagonist mode)
Type: cell-based
Conditions: CHO-K1 C5AR1 beta-arrestin cell line; antagonist vs 1-10 nM C5a agonist; geometric mean values; read-out: C5aR IC50
Procedure: II. Biological Assays In Vitro Assay hC5a DISCO IC50 Assay
5 μl Antagonist at 6-fold end concentration or DMSO control is added to assay medium and subsequently 5 μl 1-10 nM C5a agonist at 6 fold end concentration. Cells are centrifuged for 1 min at 1000 rpm and incubated for 1.5 hour in at 37° C. Plates are equilibrated at room temperature for several minutes before adding 12 μl/well Detection Reagent (PathHunter Detection Kit, DiscoverX, Cat #93-0001). Plates are centrifuged for 1 min at 1000 rpm and incubated for 45 minutes at RT before being measured on a Fluostar Optima, BMG Labtech. IC50 values are calculated from a serial dilution range of antagonist using inhouse software and given in nmol/l.
The calculated IC50 values may fluctuate depending on the daily cellular assay performance. Fluctuations of this kind are known to those skilled in the art. Average IC50 values from several measurements are given as geometric mean values.

Row | SMILES | IC50 [nM]
1 | COc1cccc2c1n(Cc1ccccc1C(F)(F)F)c(=O)n2C1CCN(c2c(C=O)c(C3CC3)nn2C)CC1 [Example 14, 3-Cyclopropyl-5-{4-[4-methoxy-2-oxo-3-(2-trifluoromethyl-benzyl)-2,3-dihydro-benzoimidazol-1-yl]-piperidin-1-yl}-1-methyl-1H-pyrazole-4-carbaldehyde] | 216
2 | COc1cccc2c1n(Cc1ccccc1OC(F)(F)F)c(=O)n2[C@@H]1CCN(C(=O)OC(C)(C)C)C1 [Example 20, (R)-3-[4-Methoxy-2-oxo-3-(2-trifluoromethoxy-benzyl)-2,3-dihydro-benzoimidazol-1-yl]-pyrrolidine-1-carboxylic acid tert-butyl ester] | 36
3 | COc1cccc2c1n(Cc1ccccc1C(F)(F)F)c(=O)n2C1CCN(c2cc(C3CC3)nn2C)CC1 [Example 21, 1-[1-(5-Cyclopropyl-2-methyl-2H-pyrazol-3-yl)-piperidin-4-yl]-4-methoxy-3-(2-trifluoromethyl-benzyl)-1,3-dihydro-benzoimidazol-2-one] | 3440
4 | COc1cccc2c1n(Cc1ccccc1C(F)(F)F)c(=O)n2C1CCN(c2c(Cl)c(C3CC3)nn2C)CC1 [Example 24, 1-[1-(4-Chloro-5-cyclopropyl-2-methyl-2H-pyrazol-3-yl)-piperidin-4-yl]-4-methoxy-3-(2-trifluoromethyl-benzyl)-1,3-dihydro-benzoimidazol-2-one] | 330
5 | COc1cccc2c1n(Cc1ccccc1C(F)(F)F)c(=O)n2C1CCN(c2c(C)c(C3CC3)nn2C)CC1 [Example 25, 1-[1-(5-Cyclopropyl-2,4-dimethyl-2H-pyrazol-3-yl)-piperidin-4-yl]-4-methoxy-3-(2-trifluoromethyl-benzyl)-1,3-dihydro-benzoimidazol-2-one] | 185
6 | COC(=O)N1CC[C@@H](n2c(=O)n(Cc3ccccc3C(F)(F)F)c3c(OC)cccc32)C1 [Example 26, (R)-3-[4-Methoxy-2-oxo-3-(2-trifluoromethyl-benzyl)-2,3-dihydro-benzoimidazol-1-yl]-pyrrolidine-1-carboxylicacid methyl ester] | 459
7 | COc1cccc2c1n(Cc1ccccc1C(F)(F)F)c(=O)n2[C@@H]1CCN(C(=O)c2ccccc2)C1 [Example 27, 1-((R)-1-Benzoyl-pyrrolidin-3-yl)-4-methoxy-3-(2-trifluoromethyl-benzyl)-1,3-dihydro-benzoimidazol-2-one] | 3340
8 | COc1cccc2c1n(Cc1ccccc1C(F)(F)F)c(=O)n2C1CCN(C(=O)C(C)(C)C)CC1 [Example 28, 1-[1-(2,2-Dimethyl-propionyl)-piperidin-4-yl]-4-methoxy-3-(2-trifluoromethyl-benzyl)-1,3-dihydro-benzoimidazol-2-one] | 1330
9 | COC(=O)N1CCC(n2c(=O)n(Cc3ccccc3C(F)(F)F)c3c(OC)cccc32)CC1 [Example 29, 4-[4-Methoxy-2-oxo-3-(2-trifluoromethyl-benzyl)-2,3-dihydro-benzoimidazol-1-yl]-piperidine-1-carboxylic acid methyl ester] | 182
10 | COc1cccc2c1n(Cc1ccccc1C(F)(F)F)c(=O)n2C1CCN(C(=O)c2ccccc2)CC1 [Example 30, 1-(1-Benzoyl-piperidin-4-yl)-4-methoxy-3-(2-trifluoromethyl-benzyl)-1,3-dihydro-benzoimidazol-2-one] | 1520
11 | COc1cccc2c1n(Cc1ccccc1C(F)(F)F)c(=O)n2[C@@H]1CCN(C)C1 [Example 31, 4-Methoxy-1-((R)-1-methyl-pyrrolidin-3-yl)-3-(2-trifluoromethyl-benzyl)-1,3-dihydro-benzoimidazol-2-one] | 3450
12 | COc1cccc2c1n(Cc1ccccc1C(F)(F)F)c(=O)n2[C@@H]1CCN(C(C)C)C1 [Example 32, 1-((R)-1-Isopropyl-pyrrolidin-3-yl)-4-methoxy-3-(2-trifluoromethyl-benzyl)-1,3-dihydro-benzoimidazol-2-one] | 642
13 | COc1cccc2c1n(Cc1ccccc1C(F)(F)F)c(=O)n2C1CCN(C(C)C)CC1 [Example 35, 1-(1-Isopropyl-piperidin-4-yl)-4-methoxy-3-(2-trifluoromethyl-benzyl)-1,3-dihydro-benzoimidazol-2-one] | 4510
14 | COc1cccc2c1n(Cc1ccccc1C(F)(F)F)c(=O)n2[C@@H]1CCN(c2c(C)cncc2C)C1 [Example 36, 1-[(R)-1-(3,5-Dimethyl-pyridin-4-yl)-pyrrolidin-3-yl]-4-methoxy-3-(2-trifluoromethyl-benzyl)-1,3-dihydro-benzoimidazol-2-one] | 450
15 | COc1cncc(OC)c1N1CC[C@@H](n2c(=O)n(Cc3ccccc3C(F)(F)F)c3c(OC)cccc32)C1 [Example 38, 1-[(R)-1-(3,5-Dimethoxy-pyridin-4-yl)-pyrrolidin-3-yl]-4-methoxy-3-(2-trifluoromethyl-benzyl)-1,3-dihydro-benzoimidazol-2-one] | 470
16 | COc1nccc2c1n(Cc1ccccc1C(F)(F)F)c(=O)n2[C@@H]1CCN(C(=O)OC(C)(C)C)C1 [Example 39, (R)-3-[4-Methoxy-2-oxo-3-(2-trifluoromethyl-benzyl)-2,3-dihydro-imidazo[4,5-c]pyridin-1-yl]-pyrrolidine-1-carboxylic acid tert-butyl ester] | 2430
17 | COc1nccc2c1n(Cc1ccccc1C(F)(F)F)c(=O)n2[C@@H]1CCN(c2c(F)cccc2F)C1 [Example 42, 1-[(R)-1-(2,6-Difluoro-phenyl)-pyrrolidin-3-yl]-4-methoxy-3-(2-trifluoromethyl-benzyl)-1,3-dihydro-imidazo[4,5-c]pyridin-2-one] | 75
18 | COc1ccnc2c1n(Cc1ccccc1C(F)(F)F)c(=O)n2[C@@H]1CCN(C(=O)OC(C)(C)C)C1 [Example 43, (R)-3-[7-Methoxy-2-oxo-1-(2-trifluoromethyl-benzyl)-1,2-dihydro-imidazo[4,5-b]pyridin-3-yl]-pyrrolidine-1-carboxylic acid tert-butyl ester] | 393

Now those with a lower IC50, led by results:

Row | IC50 [nM] | SMILES
19 | 19 | COc1ccccc1N1CC[C@@H](n2c(=O)n(Cc3ccccc3C(F)(F)F)c3c(OC)cccc32)C1 [Example 16, 4-Methoxy-1-[(R)-1-(2-methoxy-phenyl)-pyrrolidin-3-yl]-3-(2-trifluoromethyl-benzyl)-1,3-dihydro-benzoimidazol-2-one]
20 | 30 | COc1cccc2c1n(Cc1ccccc1OC(F)(F)F)c(=O)n2[C@@H]1CCN(c2c(C)cccc2C)C1 [Example 22, 1-[(R)-1-(2,6-Dimethyl-phenyl)-pyrrolidin-3-yl]-4-methoxy-3-(2-trifluoromethoxy-benzyl)-1,3-dihydro-benzoimidazol-2-one]
21 | 8 | COc1cccc2c1n(Cc1ccccc1OC(F)(F)F)c(=O)n2[C@@H]1CCN(c2c(F)cccc2F)C1 [Example 23, 1-[(R)-1-(2,6-Difluoro-phenyl)-pyrrolidin-3-yl]-4-methoxy-3-(2-trifluoromethoxy-benzyl)-1,3-dihydro-benzoimidazol-2-one]
22 | 8 | COc1nccc(C)c1N1CC[C@@H](n2c(=O)n(Cc3ccccc3C(F)(F)F)c3c(OC)cccc32)C1 [Example 33, 4-Methoxy-1-[(R)-1-(2-methoxy-4-methyl-pyridin-3-yl)-pyrrolidin-3-yl]-3-(2-trifluoromethyl-benzyl)-1,3-dihydro-benzoimidazol-2-one]
23 | 27 | COc1cccc2c1n(Cc1ccccc1C(F)(F)F)c(=O)n2[C@@H]1CCN(c2c(F)cncc2F)C1 [Example 34, 1-[(R)-1-(3,5-Difluoro-pyridin-4-yl)-pyrrolidin-3-yl]-4-methoxy-3-(2-trifluoromethyl-benzyl)-1,3-dihydro-benzoimidazol-2-one]
24 | 7 | COc1cccc2c1n(Cc1ccccc1C(F)(F)F)c(=O)n2[C@@H]1CCN(c2c(C)ccnc2F)C1 [Example 37, 1-[(R)-1-(2-Fluoro-4-methyl-pyridin-3-yl)-pyrrolidin-3-yl]-4-methoxy-3-(2-trifluoromethyl-benzyl)-1,3-dihydro-benzoimidazol-2-one]
25 | 6 | Cc1cccc(F)c1N1CC[C@@H](n2c(=O)n(Cc3ccccc3C(F)(F)F)c3c(O)cccc32)C1 [Example 40, 1-[(R)-1-(2-Fluoro-6-methyl-phenyl)-pyrrolidin-3-yl]-4-hydroxy-3-(2-trifluoromethyl-benzyl)-1,3-dihydro-benzoimidazol-2-one]
26 | 18 | COc1nccc2c1n(Cc1ccccc1C(F)(F)F)c(=O)n2[C@@H]1CCN(c2c(C)cccc2C)C1 [Example 41, 1-[(R)-1-(2,6-Dimethyl-phenyl)-pyrrolidin-3-yl]-4-methoxy-3-(2-trifluoromethyl-benzyl)-1,3-dihydro-imidazo[4,5-c]pyridin-2-one]
27 | 13 | Cc1cccc(C)c1N1CC[C@@H](n2c(=O)n(Cc3ccccc3C(F)(F)F)c3c(O)cccc32)C1 [Example 44, 1-[(R)-1-(2,6-Dimethyl-phenyl)-pyrrolidin-3-yl]-4-hydroxy-3-(2-trifluoromethyl-benzyl)-1,3-dihydro-benzoimidazol-2-one]
